Tests used:
[1] = Blood Pressure Lowering Test in Anesthetized Dogs; assay type: in vivo, dog (male mongrel); conditions: intravenous
Method: Male mongrel dogs, weighing 13 kg, were anesthetized by intravenous administration of 30 mg/kg of sodium pentobarbital. A cannula inserted into the left femoral […] was attached to a blood pressure transducer to measure blood pressure. A solution of the test drug in ethanol, if necessary, was diluted with ethanol. 10 μl of the solution was administered through the vein via a cannula inserted into the left anterior limb vein. The blood pressure lowering rate by the test drug was calculated by the following formula: [formula]

[2] = test system: Guinea-pig Blood Platelet; assay: Guinea-pig Blood Platelet Aggregation Inhibition Test (oral administration, aggregation measured in PRP); assay type: in vivo, guinea-pig (male Hartley strain); conditions: 50 μg/kg
Excerpt: The effects of the present invention are illustrated in more detail by the following experiments. Experiment 1 [Guinea-pig Blood Platelet Aggregation Inhibition Test]
194, page 927 (1962)]. […] [formula]
In the table are recited data of the compound obtained by converting the triple bond between the 13- and 14-positions of Compound 9 of Example 23 into a double bond as a comparative compound (limaprost) [Tsuboi et al, Arch. Intern. Pharmacodyn. Ther., vol. 247, page 89 (1980)].

[3] = test system: Rabbit Blood Platelet; assay: Rabbit Blood Platelet Aggregation Inhibition Test; assay type: cell-based, rabbit (New Zealand white strain); conditions: Oryctolagus cuniculus, rabbit PRP, ADP 5 μM, 37° C., mean value
Method: Groups of four New Zealand white strain rabbits, each weighing 2.5 to 4.0 kg, were used for the test. […] The collected blood was Centrifuged at 1100 rpm for 15 minutes to give platelet rich plasma (PRP) as a supernatant. […] 194, page 927 (1962)]. That is, 1 μl of the test drug dissolved in ethanol at the desired concentration was added to 275 μl of PRP, and the mixture was stirred at 1000 rpm at 37° C.
The aggregation inhibition rate was calculated on the basis of the aggregation obtained by using ethanol in place of the test drug solution, and the aggregation inhibition activity was expressed as IC50 value which was determined from the dose response curve.
Results are shown in Table 2 wherein the compound number is as defined in the examples described hereinafter, and the IC50 value is expressed as the mean value.

CCCC[C@H](C)C[C@H](O)C#C[C@H]1[C@H](O)CC(=O)[C@@H]1CCCC/C=C/C(=O)OC [Compound 1, (2E,17S)-17,20-Dimethyl-2,3,13,14-tetradehydro-PGE1 Methyl Ester]
blood pressure lowering rate ([1]; 0.03 μg/kg): 10.1% | Aggregation Inhibition Rate, ADP Aggregation, 2 hours after administration ([2]; ADP 3 μM): 9.8% | Aggregation Inhibition Rate, Collagen Aggregation, 2 hours after administration ([2]; collagen 3 μg/ml): 25.7%

CCC#CCC(C)[C@H](O)C#C[C@H]1[C@H](O)CC(=O)[C@@H]1CCCC/C=C/C(=O)OC (stereo partly drawn) [Compound 2, (2E,16RS)-16,20-Dimethyl-2,3,13,14,18,18,19,19-octadehydro-PGE1 Methyl Ester]
IC50 [3]: 1.7 nM

COC(=O)/C=C/CCCC[C@H]1C(=O)C[C@@H](O)[C@@H]1C#C[C@@H](O)C1CCCCC1 [Compound 3, (2E)-16,17,18,19,20-Pentanor-15-cyclohexyl-2,3,13,14-tetradehydro-PGE1Methyl Ester]
blood pressure lowering rate ([1]; 0.03 μg/kg): 11.5% | IC50 [3]: 6 nM

CCCC[C@H](C)C[C@H](O)C#C[C@H]1[C@H](O)CC(=O)[C@@H]1CCCCC#CC(=O)OC [Compound 4, (71S)-17,20-Dimethyl-2,2,3,3,13,14-hexadehydro-PGE1 Methyl Ester]
IC50 [3]: 3 nM

CCCC[C@@H](C)C[C@H](O)C#C[C@H]1[C@H](O)CC(=O)[C@@H]1CCCC/C=C/C(=O)OC [Compound 5, (2E,17R)-17,20-Dimethyl-2,3,13,14-tetradehydro-PGE1 Methyl Ester]
Aggregation Inhibition Rate, ADP Aggregation, 2 hours after administration ([2]; ADP 3 μM): 25.9% | Aggregation Inhibition Rate, Collagen Aggregation, 2 hours after administration ([2]; collagen 3 μg/ml): 1.6% | IC50 [3]: 1.4 nM

CCCCOC(=O)C#CCCCC[C@H]1C(=O)C[C@@H](O)[C@@H]1C#C[C@@H](O)C[C@@H](C)CCCC [Compound 6, (17S)-17,20-Dimethyl-2,2,3,3,13,14-hexadehydro-PGE1 n-butyl Ester]
Aggregation Inhibition Rate, ADP Aggregation, 2 hours after administration ([2]; ADP 3 μM): 22.8% | Aggregation Inhibition Rate, Collagen Aggregation, 2 hours after administration ([2]; collagen 3 μg/ml): 58.2%

COC(=O)C#CCCCC[C@H]1C(=O)C[C@@H](O)[C@@H]1C#C[C@@H](O)CC(C)CCC=C(C)C (stereo partly drawn) [Compound 7, (17RS)-20-Nor-17-methyl-19-(2'-methylprop-1'-enyl)-2,2,3,3,13,14-hexadehydro-PGE1 Methyl Ester]
IC50 [3]: 1.1 nM

CCCC[C@@H](C)C[C@H](O)C#C[C@H]1[C@H](O)CC(=O)[C@@H]1CCCCC#CC(=O)OC [Compound 8, (17R)-17,20-Dimethyl-2,2,3,3,13,14-hexadehydro-PGE1 Methyl Ester]
IC50 [3]: 0.74 nM

CCCC[C@H](C)C[C@H](O)C#C[C@H]1[C@H](O)CC(=O)[C@@H]1CCCC/C=C/C(=O)O [Compound 9, (2E,17S)-17,20-Dimethyl-2,3,13,14-tetradehydro-PGE1]
blood pressure lowering rate ([1]; 0.03 μg/kg): 23.7% | Aggregation Inhibition Rate, ADP Aggregation, 2 hours after administration ([2]; ADP 3 μM): 26.4% | Aggregation Inhibition Rate, Collagen Aggregation, 2 hours after administration ([2]; collagen 3 μg/ml): 28.4% | IC50 [3]: 2.6 nM

CCC#CCC(C)[C@H](O)C#C[C@H]1[C@H](O)CC(=O)[C@@H]1CCCC/C=C/C(=O)O (stereo partly drawn) [Compound 10, (2E,16RS)-16,20-Dimethyl-2,3,13,14,18,18,19,19-octadehydro-PGE1]
IC50 [3]: 1.1 nM

O=C(O)/C=C/CCCC[C@H]1C(=O)C[C@@H](O)[C@@H]1C#C[C@@H](O)C1CCCCC1 [Compound 11, (2E)-16,17,18,19,20-Pentanor-15-cyclohexyl-2,3,13,14-tetradehydro-PGE1]
IC50 [3]: 6.3 nM

CCCC[C@H](C)C[C@H](O)C#C[C@H]1[C@H](O)CC(=O)[C@@H]1CCCCC#CC(=O)O [Compound 12, (17S)-17,20-Dimethyl-2,2,3,3,13,14-hexadehydro-PGE1]
IC50 [3]: 5.1 nM

CCCCCC(C)C[C@H](O)C#C[C@H]1[C@H](O)CC(=O)[C@@H]1CCCC/C=C/C(=O)O (stereo partly drawn) [Compound 13, (2E,17RS)-17-Methyl-20-ethyl-2,3,13,14-tetradehydro-PGE1]
IC50 [3]: 2.7 nM

CCCC[C@@H](C)C[C@H](O)C#C[C@H]1[C@H](O)CC(=O)[C@@H]1CCCC/C=C/C(=O)O [Compound 14, (2E,17R)-17,20-Dimethyl-2,3,13,14-tetradehydro-PGE1]
Aggregation Inhibition Rate, ADP Aggregation, 2 hours after administration ([2]; ADP 3 μM): 52.5% | Aggregation Inhibition Rate, Collagen Aggregation, 2 hours after administration ([2]; collagen 3 μg/ml): 100.0% | Aggregation Inhibition Rate, ADP Aggregation, 8 hours after administration ([2]; 8 hours after administration, ADP 3 μM): 31.8% | Aggregation Inhibition Rate, Collagen Aggregation, 8 hours after administration ([2]; 8 hours after administration, collagen 3 μg/ml): 61.0% | IC50 [3]: 1.3 nM

CCCC[C@H](C)C[C@H](O)C#C[C@H]1[C@H](O)CC(=O)[C@@H]1CCCCCC/C=C/C(=O)O [Compound 15, (2E,17S)-2a,2b-Dihomo-17,20-dimethyl-2,2a,13,14-tetradehydro-PGE1]
IC50 [3]: 5.1 nM

CCCC[C@@H](C)C[C@H](O)C#C[C@H]1[C@H](O)CC(=O)[C@@H]1CCCCC#CC(=O)O [Compound 16, (17R)-17,20-Dimethyl-2,2,3,3,13,14-hexadehydro-PGE1]
IC50 [3]: 0.37 nM

CCCCC[C@H](O)/C=C/[C@H]1[C@H](O)CC(=O)[C@@H]1CCCCCCC(=O)O [PGE1]
blood pressure lowering rate ([1]; 1 μg/kg): 13.9% | blood pressure lowering rate ([1]; 3 μg/kg): 23.7% | IC50 [3]: 26 nM

CCCC[C@H](C)C[C@H](O)/C=C/[C@H]1[C@H](O)CC(=O)[C@@H]1CCCC/C=C/C(=O)O [limaprost, reference compound]
blood pressure lowering rate ([1]; 0.5 μg/kg): 13.9% | blood pressure lowering rate ([1]; 1 μg/kg): 23.8% | Aggregation Inhibition Rate, ADP Aggregation, 2 hours after administration ([2]; ADP 3 μM): 3.4% | Aggregation Inhibition Rate, Collagen Aggregation, 2 hours after administration ([2]; collagen 3 μg/ml): 16.2% | IC50 [3]: 6.3 nM
